Measurements: patent US9180171B2, “Method of regulating fertilizing ability using cyclic ADP-ribose and CD38” (Industrial Cooperation Foundation Chonbuk National …, priority 2011, dated 2015)
Entries after “also recorded” stand apart in the source; their conditions may differ.

Tests used:
mouse oocytes = experiment: In vitro fertilization test; format: cell-based, mice; conditions: prostasome-bound sperm pretreated with antagonist
Method: In vitro fertilization was performed using a modification of the method of Ren et al. (Ren et al., Nature 413, 603-609 (2001)). 10-12-week-old mice were injected with pregnant mare serum gonadotropin (PMSG) (5 IU; Sigma-Aldrich), and after 48 hours, injected with human chorionic gonadotropin (hCG) (5 IU; Sigma-Aldrich). 14 hours after the final injection, the uterine tube was removed and perfused with IVF medium (Medicult, USA), and the released oocytes were collected using a low-magnification microscope. In order to collect sperm, the epididymis of male mice was removed and cut into small pieces with scissors in the same medium, and swum-out sperm were collected. The number of cells in the sperm was measured, and the sperm were used in the test.

sperm [1] = experiment: Measurement of calcium in sperm cells (fluo-3, confocal microscopy); format: cell-based, human
Method: In order to measure intracellular calcium release, the sperm suspension pretreated with fluo-3 (molecular probe, USA) was titrated in a confocal dish (SPL, Seoul, Korea) coated with poly-L-lysine (Sigma-Aldrich, USA) and was allowed to react in a CO2 incubator for 20 minutes to attach the cells. Calcium in the cells was measured by a confocal microscopy system (Nikon) using the method of Tsien et al. (Tsien et al., Nature 295, 68-71 (1982)).

sperm [2] = experiment: Test for motility of sperm by CD38; format: cell-based; conditions: for CD38-induced increase in motility of sperm with inhibitor: sperm treated with inhibitor, then CD38; for motility of sperm: sperm treated with CD38
Method: The relationship between CD31 activation by CD38 and sperm motility was analyzed. […] Also, it was seen that, when sperm were treated with the ERK1/2 inhibitor PD98059 and the ras-GTP inhibitor (FTI-277) and then treated with CD38, the increase in the motility of the sperm was inhibited.

sperm [3] = experiment: Acrosome reaction of sperm by CD38 (ConA-FITC, A23187); format: cell-based; conditions: for acrosome reaction of CD38-treated sperm with inhibitor: inhibitor of downstream signaling of CD31
Method: To examine the acrosome reaction of sperm, ConA-FITC binding specifically to the acrosome of sperm was used. The isolated sperm were allowed to react with purified CD38 at 37° C. for 2 hours, and then were treated for 40 min with calcium ionophore A23187 that increases calcium in sperm to induce the acrosome reaction of sperm. Then, the sperm were placed on a glass slide, and the acrosome reaction of the sperm was examined with a fluorescence microscope.

sperm [4] = experiment: Test for sperm motility by prostasome (CASA); format: cell-based, human; conditions: prostasome-bound sperm treated with progesterone
Method: Sperm motility was measured using a CASA (computer assisted sperm analysis) system (IVOS, Hamilton Thorne Biosciences, USA). The sperm suspension was titrated onto a sperm analysis slide (2X-CEL, Hamilton Thorne Biosciences, USA) having a depth of 20 μm and was automatically photographed using a 4× magnification lens, followed by analysis.

sperm [5] = experiment: Formation of cGDPR, cyclic ADP-ribose and NAADP in prostasome-bound or -unbound sperm; format: cell-based, human
Method: The isolated sperm were diluted with a weakly alkaline buffer or fusion buffer (150 mM NaCl, 1 mM CaCl2, 1 mM MgCl2, 5 mM glucose with either 2 mM Hepes (pH 8.0) or 20 mM MES (pH 5.0, fusion buffer)) containing 0.32 M sucrose. The dilution was mixed with prostasome such that the ratio of prostasome:sperm protein was 2:1. The mixture was allowed to react at 37° C. for 15 minutes. The reaction product was centrifuged at 600×g for 10 minutes, and the precipitate was collected, resuspended in BWW buffer and used in the experiment. […] Also, the binding of prostasome was the highest at a pH of 5.0 similar to the internal acidity of the female vagina and decreased toward alkaline pH values. […] In order to examine the formation of cyclic ADP-ribose and nicotinic acid adenine dinucletide phosphate which are typical metabolites of CD38, the sperm to which prostasome was unbound or bound was treated with progesterone, after which the level of each molecule in the sperm was measured at varying points of time.

CD31 = target: T1, CD31 (Homo sapiens, UniProt P16284); experiment: Test for activation of CD31 in sperm by CD38 (immunoprecipitation, Western blot); format: cell-based; conditions: sperm treated with 600 ng/ml CD38 for 0, 15, 30 min
T1 construct: endogenous in cells; host or cells: isolated sperm
Method: In order to test the activation of CD31 in sperm, the isolated sperm were treated with 600 ng/ml CD38 for each of 0 min, 15 min and 30 min, and then buffer was added thereto to lyse the cells. Also, CD31 antibody was used to perform immunoprecipitation, and Western blot was performed using each antibody in order to examine the phosphorylation of CD31 and to examine interacting proteins.

## N=c1c2nc(Br)n3c2ncn1C1OC(COP(=O)(O)OP(=O)(O)OCC2OC3C(O)C2O)C(O)C1O (stereo not drawn) [8-Br-cADPR]
Mouse oocytes
  reduction of fertilizing ability: about 70%
Sperm [1]; prostasome-bound sperm pretreated with antagonist, then progesterone
  pattern of a continuous increase in calcium by progesterone: inhibited

## COC(=O)[C@H](CCSC)NC(=O)c1ccc(NC[C@@H](N)CS)cc1-c1ccccc1 [FTI-277]
Sperm [2]
  CD38-induced increase in motility of sperm with inhibitor: inhibited

## COc1cccc(-c2cc(=O)c3ccccc3o2)c1N [PD98059]
Sperm [2]
  CD38-induced increase in motility of sperm with inhibitor: inhibited
Sperm [3]
  acrosome reaction of CD38-treated sperm with inhibitor: inhibited

## CN(C)S(=O)(=O)c1ccc2c(c1)/C(=C/c1cc3c([nH]1)CCCC3)C(=O)N2 [Su6656]
Sperm [3]
  acrosome reaction of CD38-treated sperm with inhibitor: inhibited

## CC(=O)[C@H]1CC[C@H]2[C@@H]3CCC4=CC(=O)CC[C@]4(C)[C@H]3CC[C@]12C [progesterone]
Sperm [4]
  increase of sperm motility: about 2 times
Sperm [1]; prostasome-bound sperm
  intracellular calcium release by progesterone: intracellular calcium release immediately occurred
Sperm [1]; prostasome-unbound sperm
  intracellular calcium reaction by progesterone: immediate calcium reaction
Sperm [5]; prostasome-bound or -unbound sperm treated with progesterone
  formation of nicotinic acid adenine dinucletide phosphate in sperm: not formed
Sperm [5]; prostasome-bound sperm treated with progesterone, within several seconds
  synthesis of cyclic ADP-ribose in sperm: rapidly increased

## CD38: purified water-soluble CD38 (sCD38), ADP-ribosyl cyclase, a cell membrane protein
Sperm [2]
  motility of sperm: significantly increased
Sperm [2]; listed as sCD38
  motility of sperm: increased
Sperm [3]; sperm with purified CD38 at 37° C. for 2 hours, then A23187 40 min
  acrosome reaction of sperm: significantly increased
CD31
  phosphorylation of CD31: increased with time; also recorded: increased over time
